{"source": "paper PMC8810938", "about": "(Clinical & Translational Immunology, 2022)", "key": {"[1]": {"tested_on": "TGF‐β1‐stimulated human fibroblasts", "assay": "Induction assay: fibrotic marker mRNA", "format": "cell-based", "details": "primary human fibroblasts, TGF‐β1 5 ng mL^−1, 48 h, only at the highest test concentration 100 nM; qPCR; n = 4"}, "[2]": {"target": "T1, CXCR3A‐transfected CHO cells (human CXCR3A) (Homo sapiens, UniProt P49682)", "T1 sequence (P49682 1-368)": "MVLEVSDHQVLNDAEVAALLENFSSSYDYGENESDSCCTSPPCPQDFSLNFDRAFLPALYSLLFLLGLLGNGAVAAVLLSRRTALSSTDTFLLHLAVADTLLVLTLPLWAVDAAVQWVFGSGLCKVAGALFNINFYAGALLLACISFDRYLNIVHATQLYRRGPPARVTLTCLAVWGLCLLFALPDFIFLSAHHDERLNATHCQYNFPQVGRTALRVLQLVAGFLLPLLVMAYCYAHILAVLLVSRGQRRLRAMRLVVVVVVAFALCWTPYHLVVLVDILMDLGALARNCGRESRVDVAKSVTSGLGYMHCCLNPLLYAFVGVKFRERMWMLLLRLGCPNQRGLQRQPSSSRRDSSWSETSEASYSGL", "details": "CXCR3‐transfected CHO cells; n = 4; cited from earlier work"}}}
{"substance": "CXCL9(1–103): authentic full‐length human CXCL9 chemokine of 103 amino acids (Peprotech)", "values": [{"measurement": "collagen III mRNA expression", "setting": "[1]", "result": "significant reduction"}, {"measurement": "calcium response", "setting": "[2]", "result": "598.1 ± 22.9", "unit": "nM"}]}
